Reference: publication PMC12346198 (Cancers, 2025)
Like-named read-outs stand apart in the source and are kept apart here.

Legend:
AR-SV = target: T1, AR-SV (Homo sapiens, UniProt P10275); assay: AR protein ELISA in SNU475 cells; type: cell-based; settings: 10 µM, 24 hours, AR ELISA (Figure S3A)
T1 sequence (P10275 1-628): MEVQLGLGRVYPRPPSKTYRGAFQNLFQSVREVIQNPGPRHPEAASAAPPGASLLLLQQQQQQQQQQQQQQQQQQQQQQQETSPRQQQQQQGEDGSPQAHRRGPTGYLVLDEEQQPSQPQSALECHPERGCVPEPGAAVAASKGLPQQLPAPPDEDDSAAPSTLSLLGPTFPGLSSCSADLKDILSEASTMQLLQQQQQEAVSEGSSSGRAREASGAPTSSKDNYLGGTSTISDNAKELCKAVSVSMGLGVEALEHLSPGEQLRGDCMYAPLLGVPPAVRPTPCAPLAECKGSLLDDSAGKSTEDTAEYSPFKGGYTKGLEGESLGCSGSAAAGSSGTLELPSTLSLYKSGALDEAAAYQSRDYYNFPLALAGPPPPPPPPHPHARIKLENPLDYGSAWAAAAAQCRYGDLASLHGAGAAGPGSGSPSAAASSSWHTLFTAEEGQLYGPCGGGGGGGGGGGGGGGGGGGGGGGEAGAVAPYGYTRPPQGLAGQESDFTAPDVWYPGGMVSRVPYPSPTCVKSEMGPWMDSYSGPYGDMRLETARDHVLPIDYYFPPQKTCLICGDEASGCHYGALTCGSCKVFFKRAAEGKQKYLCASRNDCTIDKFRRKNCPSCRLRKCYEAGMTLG
Protocol: (§1) Figure S3. […] (A) SNU475 cells were treated with 10 µM of each
(§2) compound for 24 hours before analysis by AR ELISA. (B ) (Left) Cellular invasion assay was performed on SNU475
(§3) Mean + SD One way ANOVA with
(§4) (Right) Cell viability was
(§5) (1 picture or pasted object on this page, not shown here)

SNU423 = assay: CCK-8 cytotoxicity assay, SNU423; type: cell-based; settings: Homo sapiens, SNU-423, 72 h treatment
Protocol: (§6) The cytotoxicity of compounds was determined by the CCK-8 assay (Cell Counting Kit-8, CK04, Dojindo Molecular Technologies, Kumamoto, Japan). Cell lines were plated at 10,000 cells/well in 96-well plates and incubated overnight to allow for adherence (5% CO2, 37 °C). […] Cells were placed back in the incubator for 72 h treatment. CCK-8 reagent was added, and plates were further incubated 1–4 h as directed by the supplier’s instructions. Optical density was measured using a Biotek Synergy H1 plate reader at 450 nm. Primary hepatocytes were plated at 30,000 cells or 50,000 cells/well and maintained according to the technical information bulletin provided by the supplier. Upon treatment, maintenance media were supplemented with 10% FBS and fresh test compound for all subsequent media changes, as directed.

SNU475 = assay: CCK-8 cytotoxicity assay, SNU475; type: cell-based, human; settings: 72 h treatment
Protocol: as §6

HepG2 = assay: CCK-8 cytotoxicity assay, HepG2; type: cell-based, human; settings: 72 h treatment
Protocol: as §6

THLE-2 = assay: CCK-8 cytotoxicity assay, THLE-2; type: cell-based; settings: Homo sapiens, 72 h treatment
Protocol: as §6

Primary Male Hepatocytes = assay: CCK-8 cytotoxicity assay, primary male hepatocytes; type: cell-based; settings: 72 h treatment
Protocol: as §6

[1] = Single-dose IV and PO pharmacokinetics in mice; type: in vivo, male C57BL/6 mice
Protocol: The in-life study and quantitative analysis of plasma samples using LC/MS were performed at Charles River Laboratories, Inc. (Wilmington, MA, USA).

SNU475 cells [2] = assay: Cellular invasion assay, SNU475; type: cell-based, human; settings: 1 µM and 10 µM, 48 h of treatment
Protocol: The BioCoat Matrigel invasion assay was performed according to the manufacturer’s instructions (BioCoat Matrigel Invasion Chambers, 354480, Corning, Corning, NY, USA). AR-negative clones and parental lines (SNU475 and HCCLM3) were hormone-deprived in phenol red-free RPMI1640 with 5% csFBS (±Pen-Strep) for 24 h. A total of 40,000 cells were suspended in a well insert in 0.5 mL of phenol red-free medium without csFBS over a well of 0.75 mL phenol red-free medium with 5% csFBS as a chemoattractant and incubated for 24 h. Invaded cells were fixed in 4% paraformaldehyde and stained with 0.1% crystal violet in 20% methanol. Cells in 10 different and non-overlapping fields of each membrane were photographed and counted. The Fluorometric QCM™ 24-Well Cell Invasion Assay (ECM 554, MilliporeSigma, Burlington, MA, USA) was executed as per the manufacturer’s protocol using 1.25 × 10^5 cells in 250 μL of serum-free medium and incubated for 24–72 h. Following cell lysis and staining with CyQuant GR Dye, fluorescence was measured in a plate reader using a 480/520 nm filter set.
as §1, §2, §3, §4, §5

SNU475 cells [3] = assay: Cell viability under invasion assay conditions; type: cell-based, human; settings: 1 µM
Protocol: as §1, §2, §3, §4, §5

SNU475 cells [4] = assay: Hollow fiber assay (HFA) model of AR-SV HCC; type: in vivo; settings: BID PO one week; niclosamide 75, valine–niclosamide 106.1, valine–compound #7 87.3, compound #7 62.9 mg/kg; nude mice
Text: The hollow fiber procedures were based upon those developed by Hollingshead et al. with technical consultation kindly provided by Drs. Joanna Burdette and Dan Lantvit (University of Illinois Chicago, Chicago, IL, USA). […] In order to utilize a PO dosing approach with the HFA, we extended the traditional HFA timeline to establish angiogenesis, as noted in the literature. […] Hollow fibers (KrosFlo Implant Membranes, M138615, Repligen, Waltham, MA, USA) were filled with 3 × 10^6 SNU475 cells/mL per length and heat-sealed into 2 cm lengths on Day −1. On Day 0, three fibers were implanted into 20-week-old male outbred homozygous athymic nude mice (Foxn1^nu/Foxn1^nu, The Jackson Laboratory, Bar Harbor, ME, USA) subcutaneously parallel to the spine. Following a 14-day waiting period to allow for angiogenesis around the fibers, treatment was initiated. […] On Day 21, mice were euthanized and hollow fibers were explanted. The MTT assay was performed according to the KrosFlo Implant Membrane protocol utilizing Thiazolyl Blue Tetrazolium Bromide (M2128, MilliporeSigma, Burlington, MA, USA).

[5] = 40 mg/kg dose PO; listed as niclosamide; cited from earlier work
[6] = Plasma stability, human plasma; type: in vitro ADME
Protocol: (§7) Samples were taken at 0, 30, 60, 120, 180, and 360 min to quantitate the disappearance of the valine conjugates and appearance of a cleaved parent. The matrix stability assay in plasma and the quantitative analysis of samples by UV-VIS HPLC were performed according to the standard protocol at Charles River Laboratories, Inc. (Wilmington, MA, USA).

[7] = Plasma stability, murine plasma; type: in vitro ADME, mouse
Protocol: as §7

[8] = IV, 2 mg/kg (valine conjugates 2 mg/kg EQV)
[9] = IV, 2 mg/kg (valine conjugates 2 mg/kg EQV), non-compartmental analysis
[10] = PO, 40 mg/kg (valine conjugates 40 mg/kg EQV)
[11] = male, C57BL/6, mouse, plasma, iv, 2 mg/kg, IV, 2 mg/kg (valine conjugates 2 mg/kg EQV), analyte = dosed compound, non-compartmental analysis, read-out: AUCall, Geo Mean
[12] = male, C57BL/6, mouse, plasma, iv, 2 mg/kg, IV, 2 mg/kg (valine conjugates 2 mg/kg EQV), read-out: Cmax, Geo Mean
[13] = male, C57BL/6, mouse, plasma, po, 40 mg/kg, PO, 40 mg/kg (valine conjugates 40 mg/kg EQV), analyte = dosed compound, non-compartmental analysis, read-out: AUCall, Geo Mean
[14] = male, C57BL/6, mouse, plasma, po, 40 mg/kg, PO, 40 mg/kg (valine conjugates 40 mg/kg EQV), read-out: Cmax, Geo Mean
[15] = male, C57BL/6, mouse, plasma, IV, 2 mg/kg (valine conjugates 2 mg/kg EQV), read-out: Tmax, Geo Mean
[16] = male, C57BL/6, mouse, plasma, PO, 40 mg/kg (valine conjugates 40 mg/kg EQV), read-out: Tmax, Geo Mean
[17] = male, C57BL/6, mouse, plasma, single IV dose, 2 mg/kg or molar equivalent, read-out: Systemic clearance following an IV dose (converted)
[18] = male, C57BL/6, mouse, in vivo, iv, 2 mg/kg
[19] = male, C57BL/6, mouse, in vivo, po, 40 mg/kg

Compound | Decrease of AR protein levels compared to enzalutamide and sorafenib (AR-SV) | IC50 (SNU423) [µM] | IC50 (SNU475) [µM] | IC50 (HepG2; Homo sapiens, HepG2, 72 h) [µM] | IC50 (THLE-2) [µM] | IC50 (Primary Male Hepatocytes; Hepatocyte, 72 h) [µM] | HL_Lambda_z, Geo Mean [1, 8] [h] | IV: Clobs, Geo Mean [1, 9] [L/h] | HL_Lambda_z, Geo Mean [1, 10] [h] | PO: Cl_Fobs, Geo Mean [1, 10] [L/h] | AUC [1, 11] [µM·h] | Cmax [1, 12] [µM] | AUC [1, 13] [µM·h] | Cmax [1, 14] [µM] | Tmax [1, 15] [min] | Tmax [1, 16] [min] | clearance [1, 17] [mL/min] | IC50 (SNU475; Homo sapiens, SNU-475, 72 h) [µM] | Cell viability within hollow fibers (MTT assay) (SNU475 cells [4]) | also measured
O=C(Nc1ccc(C(F)(F)F)cc1)c1cc(Cl)ccc1O [compound #11] | more effectively decrease AR protein levels | 0.58 | 7.2 | 1.9 | 0.56 | 9.5 | 0.96 | 0.03 | 2.68 | 0.35 | 5.06 | 11.3 | 7.98 | 6.08 | 4.8 | 25.2 | 0.5 | – | – | IC50 (SNU475; listed as Compound #11): 0.89 µM; IC50 (HepG2; listed as Compound #11): 1.86 µM; IC50 (Primary Male Hepatocytes; listed as Compound #11): 9.47 µM; AUC ([1]; male, C57BL/6, mouse, plasma, po, 40 mg/kg, single PO dose, 40 mg/kg or molar equivalent, analyte = dosed compound, read-out: AUCall following an oral dose): 7.98 µM·h
O=C(Nc1ccc([N+](=O)[O-])cc1Cl)c1cc(Cl)ccc1O [Niclosamide, niclosamide, reference compound] | – | 0.25 | 1.33 | 0.6 | 0.37 | 7.2 | – | – | – | – | – | – | – | – | – | – | – | 1.3 | no differences in cell viability | IC50 (Primary Male Hepatocytes): 7.16 µM; SNU475 invasion (SNU475 cells [2]): decreased invasion; Cell viability at 48 h (SNU475 cells [3]): not impacted; Expected plasma levels for up to 8 h post-dose ([1]; C57BL/6, mouse, in vivo): approximately 0.2 µM; PO: Cl_Fobs, Geo Mean ([1]; male, C57BL/6, mouse, in vivo): 0.78 L/h; Tmax [1, 18]: 4.8 min; clearance [1, 18]: 1.33 mL/min; Cmax ([1]; male, C57BL/6, mouse, in vivo, iv, 2 mg/kg, Cmax, Geo Mean): 6.03 µM; AUCall of parent following an oral dose of its valine conjugate [1, 19]: 0.8 µM·h; Tmax [1, 19]: 25.2 min; AUC ([1]; male, C57BL/6, mouse, in vivo, po, 40 mg/kg, AUCall following an oral dose of the unconjugated compound): 3.25 µM·h; Cmax ([1]; male, C57BL/6, mouse, in vivo, po, 40 mg/kg, Cmax following an oral dose of the unconjugated compound): 1.65 µM; Cmax ([1]; male, C57BL/6, mouse, in vivo, po, 40 mg/kg, Cmax, Geo Mean): 1.65 µM; Plasma niclosamide concentration 4 h after oral administration [5]: roughly 0.10 µM
O=C(Nc1ccc(C(F)(F)F)cc1Cl)c1cc(Cl)ccc1O [compound #7] | more effectively decrease AR protein levels | 0.28 | 6.6 | 0.45 | 0.31 | > 30 | 4.85 | 0.04 | 3.58 | 0.21 | 3.7 | 6.98 | 13 | 5.79 | 4.8 | 15 | 0.667 | 4 | no differences in cell viability | Expected plasma levels for up to 8 h post-dose ([1]; linearly scaled from PK data, BID 75 mg/kg niclosamide, 105.7 mg/kg valine–niclosamide, 87.3 mg/kg valine–compound #7, 62.9 mg/kg compound #7): 0.86 µM; AUC ([1]; male, C57BL/6, mouse, plasma, po, 40 mg/kg, PO 40 mg/kg of the parent compound, read-out: AUCall following an oral dose of the unconjugated compound): 13 µM·h; Cmax ([1]; male, C57BL/6, mouse, plasma, po, 40 mg/kg, PO 40 mg/kg of the parent compound, read-out: Cmax following an oral dose of the unconjugated compound): 5.78 µM
CC(C)[C@H](N)C(=O)OCCOCn1cnc2c(=O)[nH]c(N)nc21 [valacyclovir] | – | – | – | – | – | – | – | – | – | – | – | – | – | – | – | – | – | – | – | Formation of the cleaved parent ([6]; 360 min): readily detectable acyclovir; Percentage of pro-drug remaining intact ([6]; 6 h (360 min)): 66.4%; Formation of the cleaved parent ([7]; 360 min): readily detectable acyclovir; Percentage of pro-drug remaining intact ([7]; 6 h (360 min)): 37.7%
